What was measured:
Format in all cases: in vivo, human
patients with diarrhea [1] = assay: Treatment of diarrhea associated with cold or raw food, or with common cold (Example 9); conditions: 14 to 21 days
patients with diarrhea [2] = assay: Treatment of diarrhea associated with alcohol intake (Example 10); conditions: 14 to 21 days
IBS patients = assay: Treatment of IBS with live Bifidobacterium tablets (Example 8)
[3] = diarrhea after cold/raw food or common cold
[4] = diarrhea after drinking alcohol
[5] = 57 IBS patients, 14 to 21 days, cured plus effective

Bifidobacterium
effectiveness in treating diarrhea associated with eating cold or raw foods, or with common cold (patients with diarrhea [1]): highly effective
Cured (cases) (patients with diarrhea [1]; [3]): 23
Effective (cases) (patients with diarrhea [1]; [3]): 14
Improved (cases) (patients with diarrhea [1]; [3]): 5
Ineffective (cases) (patients with diarrhea [1]; [3]): 0
Efficacy (patients with diarrhea [1]; diarrhea after cold/raw food or common cold, cured plus effective): 88.10%
effectiveness in treating diarrhea associated with alcohol intake (patients with diarrhea [2]): highly effective
Cured (cases) (patients with diarrhea [2]; [4]): 21
Effective (cases) (patients with diarrhea [2]; [4]): 13
Improved (cases) (patients with diarrhea [2]; [4]): 4
Ineffective (cases) (patients with diarrhea [2]; [4]): 0
Efficacy (patients with diarrhea [2]; diarrhea after drinking alcohol, cured plus effective): 89.5%
Cured % (IBS patients; 57 IBS patients, 14 to 21 days): 61%
Cured Case No. (IBS patients; 57 IBS patients, 14 to 21 days): 35
Effective % (IBS patients; 57 IBS patients, 14 to 21 days): 28%
Effective Case No. (IBS patients; 57 IBS patients, 14 to 21 days): 16
Improved % (IBS patients; 57 IBS patients, 14 to 21 days): 11%
Improved Case No. (IBS patients; 57 IBS patients, 14 to 21 days): 6
Ineffective % (IBS patients; 57 IBS patients, 14 to 21 days): 0%
Ineffective Case No. (IBS patients; 57 IBS patients, 14 to 21 days): 0
Effective Cases % (overall effective rate) (IBS patients; [5]): 89%
Effective Cases Case No. (IBS patients; [5]): 51
other IBS symptoms, such as abdominal pain and discomfort (IBS patients; IBS patients): alleviated
symptoms of diarrhea or constipation (IBS patients; most of the IBS patients): ameliorated
